# Results reported in PubChem BioAssay AID1963967 (Molecular Pharmacology Branch, DTP, NCI, 2024).
# Tested on: 855422-203-R-J1-PDC spheroids with HUVEC/MSC, viability
# Experiment: Anticancer human tumor 855422-203-R-J1-PDC patient-derived bladder carcinoma cell line growth inhibition [PI3K]
# Conditions: for viability, T/C: stronger effect = lower value
# Outline: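 Tumor cells were combined with HUVEC and MSCs into spheroids, then dosed with PI3K-inhibitor combinations over half-log ranges capped near clinical Cmax or 10 microM.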
# [1] = curve of first compound, second compound 0.00316 µM
# [2] = curve of first compound, second compound 0.01 µM
# [3] = curve of first compound, second compound 0.0316 µM
# [4] = curve of first compound, second compound 0.1 µM
# [5] = curve of first compound, second compound 0.316 µM
# [6] = curve of first compound, second compound 1 µM
# [7] = second compound 0.00316 µM, first compound 0.0316 µM
# [8] = second compound 0.00316 µM, first compound 0.1 µM
# [9] = second compound 0.00316 µM, first compound 0.316 µM
# [10] = second compound 0.00316 µM, first compound 1 µM
# [11] = second compound 0.01 µM, first compound 0.0316 µM
# [12] = second compound 0.01 µM, first compound 0.1 µM
# [13] = second compound 0.01 µM, first compound 0.316 µM
# [14] = second compound 0.01 µM, first compound 1 µM
# [15] = second compound 0.0316 µM, first compound 0.0316 µM
# [16] = second compound 0.0316 µM, first compound 0.1 µM
# [17] = second compound 0.0316 µM, first compound 0.316 µM
# [18] = second compound 0.0316 µM, first compound 1 µM
# [19] = second compound 0.0316 µM, first compound 3.16 µM
# [20] = second compound 0.0316 µM, first compound 10 µM
# [21] = second compound 0.1 µM, first compound 0.0316 µM
# [22] = second compound 0.1 µM, first compound 0.1 µM
# [23] = second compound 0.1 µM, first compound 0.316 µM
# [24] = second compound 0.1 µM, first compound 1 µM
# [25] = second compound 0.1 µM, first compound 3.16 µM
# [26] = second compound 0.1 µM, first compound 10 µM
# [27] = second compound 0.316 µM, first compound 0.0316 µM
# [28] = second compound 0.316 µM, first compound 0.1 µM
# [29] = second compound 0.316 µM, first compound 0.316 µM
# [30] = second compound 0.316 µM, first compound 1 µM
# [31] = second compound 0.316 µM, first compound 3.16 µM
# [32] = second compound 0.316 µM, first compound 10 µM
# [33] = second compound 1 µM, first compound 0.0316 µM
# [34] = second compound 1 µM, first compound 0.1 µM
# [35] = second compound 1 µM, first compound 0.316 µM
# [36] = second compound 1 µM, first compound 1 µM
# [37] = second compound 1 µM, first compound 3.16 µM
# [38] = second compound 1 µM, first compound 10 µM
# 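Also: agents incubated with spheroids for one week before read-out.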
# 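For viability, T/C in this document: 100% = DMSO vehicle-treated control wells.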
compound,measurement,setting,value
CC(C)NCC(C(=O)N1CCN(c2ncnc3c2C(C)CC3O)CC1)c1ccc(Cl)cc1 (stereo not drawn) + CC(Nc1ccc2c(c1)OCCn1cc(N3C(=O)OCC3C(F)F)nc1-2)C(N)=O,IC50,[1],836 nM
same,IC50,[2],1120 nM
same,IC50,[3],1160 nM
same,IC50,[4],671 nM
same,IC50,[5],< 31.6 nM
same,IC50,[6],< 31.6 nM
same,"viability, T/C",[7],107%
same,"viability, T/C",[8],65.8%
same,"viability, T/C",[9],70.4%
same,"viability, T/C",[10],45.3%
same,"viability, T/C","second compound 0.00316 µM, first compound 3.16 µM",38.7%
same,"viability, T/C","second compound 0.00316 µM, first compound 10 µM",20.4%
same,"viability, T/C",[11],82.2%
same,"viability, T/C",[12],65.8%
same,"viability, T/C",[13],71.3%
same,"viability, T/C",[14],51.5%
same,"viability, T/C","second compound 0.01 µM, first compound 3.16 µM",32.2%
same,"viability, T/C","second compound 0.01 µM, first compound 10 µM",18.4%
same,"viability, T/C",[15],66.6%
same,"viability, T/C",[16],70%
same,"viability, T/C",[17],67.7%
same,"viability, T/C",[18],49.1%
same,"viability, T/C",[19],34.8%
same,"viability, T/C",[20],16.4%
same,"viability, T/C",[21],65.8%
same,"viability, T/C",[22],63.6%
same,"viability, T/C",[23],61.9%
same,"viability, T/C",[24],42.8%
same,"viability, T/C",[25],27.2%
same,"viability, T/C",[26],12.4%
same,"viability, T/C",[27],47.6%
same,"viability, T/C",[28],49.6%
same,"viability, T/C",[29],45.8%
same,"viability, T/C",[30],38.3%
same,"viability, T/C",[31],24%
same,"viability, T/C",[32],11.9%
same,"viability, T/C",[33],39.2%
same,"viability, T/C",[34],36.5%
same,"viability, T/C",[35],31.4%
same,"viability, T/C",[36],28.3%
same,"viability, T/C",[37],20.9%
same,"viability, T/C",[38],10.5%
CCN1CCN(Cc2ccc(Nc3ncc(F)c(-c4cc(F)c5nc(C)n(C(C)C)c5c4)n3)nc2)CC1 + CC(Nc1ccc2c(c1)OCCn1cc(N3C(=O)OCC3C(F)F)nc1-2)C(N)=O,IC50,[1],> 1000 nM
same,IC50,[2],791 nM
same,IC50,[3],277 nM
same,IC50,[4],70.7 nM
same,IC50,[5],4.29 nM
same,IC50,[6],< 3.16 nM
same,"viability, T/C","second compound 0.00316 µM, first compound 0.00316 µM",111%
same,"viability, T/C","second compound 0.00316 µM, first compound 0.01 µM",74.3%
same,"viability, T/C",[7],103%
same,"viability, T/C",[8],74.1%
same,"viability, T/C",[9],66.2%
same,"viability, T/C",[10],56.5%
same,"viability, T/C","second compound 0.01 µM, first compound 0.00316 µM",102%
same,"viability, T/C","second compound 0.01 µM, first compound 0.01 µM",80%
same,"viability, T/C",[11],89.7%
same,"viability, T/C",[12],76%
same,"viability, T/C",[13],56.7%
same,"viability, T/C",[14],48.3%
same,"viability, T/C","second compound 0.0316 µM, first compound 0.00316 µM",69.1%
same,"viability, T/C","second compound 0.0316 µM, first compound 0.01 µM",78.3%
same,"viability, T/C",[15],78.3%
same,"viability, T/C",[16],61.7%
same,"viability, T/C",[17],49.7%
same,"viability, T/C",[18],35.4%
same,"viability, T/C","second compound 0.1 µM, first compound 0.00316 µM",66%
same,"viability, T/C","second compound 0.1 µM, first compound 0.01 µM",66.2%
same,"viability, T/C",[21],59.1%
same,"viability, T/C",[22],46.3%
same,"viability, T/C",[23],28.3%
same,"viability, T/C",[24],21%
same,"viability, T/C","second compound 0.316 µM, first compound 0.00316 µM",46.5%
same,"viability, T/C","second compound 0.316 µM, first compound 0.01 µM",52%
same,"viability, T/C",[27],43.1%
same,"viability, T/C",[28],24.4%
same,"viability, T/C",[29],16.4%
same,"viability, T/C",[30],16.1%
same,"viability, T/C","second compound 1 µM, first compound 0.00316 µM",33%
same,"viability, T/C","second compound 1 µM, first compound 0.01 µM",40.3%
same,"viability, T/C",[33],21.9%
same,"viability, T/C",[34],14.2%
same,"viability, T/C",[35],12.3%
same,"viability, T/C",[36],13.1%
C[C@@H](NC(=O)c1ncnc(N)c1Cl)c1ncc(C(=O)Nc2cc(C(F)(F)F)c(Cl)cn2)s1 + Cc1nc(NC(=O)N2CCCC2C(N)=O)sc1-c1ccnc(C(C)(C)C(F)(F)F)c1,IC50,[3],> 10000 nM
same,IC50,[4],> 10000 nM
same,IC50,[5],> 10000 nM
same,IC50,[6],4570 nM
same,IC50,"curve of first compound, second compound 3.16 µM",< 31.6 nM
same,IC50,"curve of first compound, second compound 10 µM",< 31.6 nM
same,"viability, T/C",[15],97.8%
same,"viability, T/C",[16],85.9%
same,"viability, T/C",[17],118%
same,"viability, T/C",[18],100%
same,"viability, T/C",[19],118%
same,"viability, T/C",[20],109%
same,"viability, T/C",[21],72.7%
same,"viability, T/C",[22],86.8%
same,"viability, T/C",[23],104%
same,"viability, T/C",[24],91.2%
same,"viability, T/C",[25],111%
same,"viability, T/C",[26],93.4%
same,"viability, T/C",[27],73.1%
same,"viability, T/C",[28],85.9%
same,"viability, T/C",[29],94.3%
same,"viability, T/C",[30],85.8%
same,"viability, T/C",[31],94.6%
same,"viability, T/C",[32],60.9%
same,"viability, T/C",[33],70.1%
same,"viability, T/C",[34],67.2%
same,"viability, T/C",[35],51.2%
same,"viability, T/C",[36],68.6%
same,"viability, T/C",[37],62.3%
same,"viability, T/C",[38],23.4%
same,"viability, T/C","second compound 3.16 µM, first compound 0.0316 µM",39.3%
same,"viability, T/C","second compound 3.16 µM, first compound 0.1 µM",44.6%
same,"viability, T/C","second compound 3.16 µM, first compound 0.316 µM",30.9%
same,"viability, T/C","second compound 3.16 µM, first compound 1 µM",42.8%
same,"viability, T/C","second compound 3.16 µM, first compound 3.16 µM",33.5%
same,"viability, T/C","second compound 3.16 µM, first compound 10 µM",14.3%
same,"viability, T/C","second compound 10 µM, first compound 0.0316 µM",25%
same,"viability, T/C","second compound 10 µM, first compound 0.1 µM",18.9%
same,"viability, T/C","second compound 10 µM, first compound 0.316 µM",24.3%
same,"viability, T/C","second compound 10 µM, first compound 1 µM",18.8%
same,"viability, T/C","second compound 10 µM, first compound 3.16 µM",11.7%
same,"viability, T/C","second compound 10 µM, first compound 10 µM",4.33%
CC(Nc1ncnc2nc[nH]c12)c1cc2cccc(Cl)c2c(=O)n1-c1ccccc1 (stereo not drawn),"viability, T/C",compound 0.0316 µM,107% [middle of 8 runs]
same,"viability, T/C",compound 0.1 µM,108% [middle of 8 runs]
same,"viability, T/C",compound 0.316 µM,115% [middle of 8 runs]
same,"viability, T/C",compound 1 µM,107% [middle of 8 runs]
same,"viability, T/C",compound 3.16 µM,98.8% [middle of 8 runs]
same,"viability, T/C",compound 10 µM,86.2% [middle of 8 runs]
same,IC50,"compound alone, run of 05/09/2023",> 10000 nM
